Key:
HL-60/ADR cells = assay: MTS cytotoxicity test procedure with HL-60/ADR cells; type: cell-based, human; settings: for Ratio: IC50 on HL-60/ADR cells/IC50 on HL-60 cells
From the text: (§1) Human cancer cell lines, unless otherwise noted, are obtained from the American Type Culture Collection (Rockville, Md.). The following drug-sensitive parental cell lines, and their derived drug-resistant counterparts, are obtained from the originators as listed: (a) S1 (parental line from a subclone of human colon carcinoma line LS174T) and derived S1-M1-3.2 (herein called S1-M1) which expresses the MXR drug transporter protein, are provided by Dr. L. Greenberger, Wyeth Research (Rabindran, S. K., He, H., Singh, M., Brown, E., Collins, K. I., Annable, T., and Greenberger, L. M. Reversal of a novel multidrug resistance mechanism in human colon carcinoma cells by fumitremorgin C. Cancer Res., 58: 5850-5858,1998); (b) parental HL-60 human promyelocytic leukemia line and derived HL-60/ADR, which expresses the MRP1 drug transporter protein, are provided by Dr. M. Center, University of Kansas (McGrath, T., and Center, M. S. Adriamycin resistance in HL60 cells in the absence of detectable P-glycoprotein. Biochem. Biophys. […] J. Biol. Chem., 261: 7762-7770, 1986) via Dr. L. Greenberger, Wyeth Research.
The MTS assay, which is sold in kit form by Promega (Madison, Wis.; CellTiter 96 AQueous Non-Radioactive Cell Proliferation Assay), is based on the conversion by viable cells, but not by dead cells, of the tetrazolium salt, MTS (3-(4,5-dimethylthiazol-2-yl)-5-(3-carboxymethoxyphenyl)-2-(4-sulphophenyl)-2H-tetrazolium, inner salt), into a water-soluble colored formazan which is detected by spectrophotometry. Compounds are tested at nine concentrations, in order to determine IC50 values. For the test procedure, cells are harvested by trypsinization (or, in the case of non-adherent cells, by simple resuspension), washed, counted and distributed to wells of 96-well flat-bottom microtiter plates at 1000 cells per well in 200 μL of medium. In addition, one row of wells on a separate plate receives cells as above (“time 0” plate). All plates are incubated at 370 in humidified 5% CO2 in air for about 24 hr.
On day 2, compounds for test are diluted and added to wells. Compounds are dissolved in DMSO at 10 mg/mL. For each compound, nine serial 2-fold dilutions are prepared in DMSO. Ten μL of each dilution in DMSO is transferred to 100 μL of medium, mixed well, and then 5 μL of this dilution is transferred in quadruplicate to wells containing cells. […] Plates are returned to the incubator for three days. At the time of drug addition to the experimental plates, the MTS assay is run on the “time 0” plate.
After three days of culture with test compounds (day 5 overall), the MTS assay is done on all wells of the experimental plates. The absorbance values of the quadruplicate sample wells are averaged and divided by the average of the “time 0” values. […] The nine values for each compound are plotted against concentration, and the concentration that produces a relative color yield half way between the maximum and minimum is taken as the IC50 value.
HL-60/ADR cells overexpress the multidrug resistance protein MRP1 which mediates resistance to some chemotherapeutics (Gottesman, M. M., Fojo, T., and Bates, S. E. Multidrug resistance in cancer: role of ATP-dependent transporters. Nature Rev. Cancer, 2: 48-58, 2002). The IC50 values of example 6 of this invention, as well as reference compounds, on HL-60/ADR are compared to values on the sensitive parental HL-60 line.

S1 cells = assay: MTS cytotoxicity test procedure with S1 cells; type: cell-based; settings: Homo sapiens, MTS assay, means of 2 independent experiments
From the text: Human cancer cell lines, unless otherwise noted, are obtained from the American Type Culture Collection (Rockville, Md.). […]
The MTS assay, which is sold in kit form by Promega (Madison, Wis.; CellTiter 96 AQueous Non-Radioactive Cell Proliferation Assay), is based on the conversion by viable cells, but not by dead cells, of the tetrazolium salt, MTS (3-(4,5-dimethylthiazol-2-yl)-5-(3-carboxymethoxyphenyl)-2-(4-sulphophenyl)-2H-tetrazolium, inner salt), into a water-soluble colored formazan which is detected by spectrophotometry. […] For the test procedure, cells are harvested by trypsinization (or, in the case of non-adherent cells, by simple resuspension), washed, counted and distributed to wells of 96-well flat-bottom microtiter plates at 1000 cells per well in 200 μL of medium. […]
After three days of culture with test compounds (day 5 overall), the MTS assay is done on all wells of the experimental plates. The absorbance values of the quadruplicate sample wells are averaged and divided by the average of the “time 0” values. […]

KB-8-5 cells = assay: SRB cytotoxicity test procedure with KB-8-5 cells; type: cell-based, human; settings: SRB assay
From the text: as §1
The SRB standard cytotoxicity assay is done according to previously reported methods (Discafani, C. M., Carroll, M. L., Floyd Jr., M. B. F., Hollander, I. J., Husain, Z., Johnson, B. D., Kitchen, D., May, M. K., Malo, M. S., Minnick Jr., A. A., Nilakantan, R., Shen, R., Wang Y-F., Wissner, A., Greenberger, L. M. Irreversible inhibition of epidermal growth factor receptor tyrosine kinase with in vivo activity by N-[4-[3-bromophenyl)amino]-6-quinaxolinyl]-2-butynamide (CL-387,785). Biochem. Pharmacol., 57: 917-925, 1999). Briefly, cells are plated in 100 μL of medium in 96-well flat-bottom microtiter plates in the morning of day 1 and allowed to adhere to the plates for 2-6 hr. Compounds are serially diluted into medium as 2× stocks and 100 μL of these stocks are added to cells in duplicate. Compounds are incubated with cells for 3 days. At the end of the incubation period the sulforhodamine B (SRB) assay, which measures protein content as an assessment of cell survival, is performed as described previously (Skehan, P., Storeng, R., Scudiero, D., Monks, A., McMahon, J., Vistica, D., Warren, J. T., Bokesch, H., Kenney, S., Boyd, M. R. New calorimetric cytotoxicity assay for anticancer-drug screening. J. Natl. Cancer Inst., 82:1107-1112, 1990) with some modifications. Medium is gently decanted from plates and replaced with 200 μL per well of cold serum-free medium containing a final concentration of 10% trichloroacetic acid. The plates are incubated for 1 hr at 40, washed 5 times in cold distilled water, and air-dried overnight. […] Absorbance is read on a Victor V multi-label plate reader (Perkin Elmer, Gaithersburg, Md.). […]

Compound	IC50 (HL-60/ADR cells; Homo sapiens, HL60/ADR, MTS assay, HL-60/ADR cells, means of 2 independent experiments) [nM]	Ratio (HL-60/ADR cells)	Ratio (HL-60/ADR cells; listed as example 6)	IC50 (S1 cells) [nM]	IC50 (KB-8-5 cells; Homo sapiens, KB 8.5 cells, means of 2 independent experiments) [nM]	Ratio 8.5/KB (KB-8-5 cells; IC50 on KB 8.5 cells/IC50 on KB cells)
CN(C)CCCOc1cc(F)c(-c2c(Cl)nc3nccn3c2C2CCCCCC2)c(F)c1 [Example 6, 3-[4-(7-Chloro-5-cycloheptylimidazo[1,2-a]pyrimidin-6-yl)-3,5-difluorophenoxy]-N,N-dimethylpropan-1-amine]	29	0.55	no resistance	63		
CC(=O)O[C@H]1C(=O)[C@@]2(C)[C@H]([C@H](OC(=O)c3ccccc3)[C@]3(O)C[C@H](OC(=O)[C@H](O)[C@@H](NC(=O)c4ccccc4)c4ccccc4)C(C)=C1C3(C)C)[C@]1(OC(C)=O)CO[C@@H]1C[C@@H]2O [Paclitaxel, reference compound]					34	16

Reference: US7285555B2, “6-aryl-7-halo-imidazo[1,2-a]pyrimidines as anticancer agents” (Wyeth Holdings Corporation, priority 2003, dated 2007)
